According to patent US20250082760A1 (priority 2020, published 2025):
Structures can show the parent of a compound that is named as a salt.

How the values were obtained:
[1] = tested on: lipopolysaccharide-induced depression mouse model; experiment: lipopolysaccharide-induced depression mouse model (open field, forced swimming test, body weight); assay type: in vivo, ICR mice
Description: Positive drug: fluoxetine hydrochloride capsule (specification 20 mg), take the content in a mortar, add 40 ml of 0.5% CMC-Na solution while grinding, to a suspended state, set EP tube for use; test drug (compound 5): dissolve into 5, 10, and 20 mg/ml solutions in distilled water, respectively, and put them in EP tubes for later use; modeling drug (LPS): take a frozen lipopolysaccharide PBS solution (1.2 mg: 1.2 ml), and after thawing Use a pipette to take 1 ml into the EP tube, replace with a new pipette tip and pipette 9 ml of normal saline into the EP tube, shake well for use.
Except for the first group (blank control group), other groups of animals were intraperitoneally injected with LPS 2 h before the last administration on the 7th day to the mice in the model group, the positive drug group, and the low, middle and high dose groups of the test drug.
The first group was the blank control group, which was given 0.5% CMC-Na 0.2 ml/20 g by gavage; the second group was the model group, which was given 0.5% CMC-Na by gavage; the third group was the positive drug group, which was given by gavage Flunarizine hydrochloride (sibilin) 1 mg/kg; the fourth group was the low-dose group of the test drug, which was given 100 mg/kg of compound 5 by gavage; the fifth group was the medium-dose group of the test drug, which was given 200 mg/kg by gavage. kg of compound 5; the sixth group was the test drug high-dose group, and 400 mg/kg of compound 5 was administered by gavage. The drug was administered for one week, and the second to sixth groups were intraperitoneally injected with 1 mg/kg (0.2 ml/20 g) of LPS on the seventh day to establish a model.
On the 7th day, before the last administration and modeling, the effect of the drug on the spontaneous activity of the mice should be investigated, and it is excluded that the drug increases the spontaneous activity of the mice and interferes with the immobility time in the forced swimming experiment. The total migration distance of each mouse in the open field (50×50×50 cm) within 5 min was calculated using the open field experimental instrument and related computer software. Before the data collection, each mouse was given 5 min to familiarize with the open field environment, after each mouse was tested, its excrement was removed and the odor was eliminated with an alcohol spray bottle.
Because the air temperature is low, it is appropriate to control the water temperature by adding hot water to the cylinder.
In the spontaneous activity, the behavioral index selects the total migration distance of mice in the open field within 5 minutes,
by tracking the movement trajectory of mice through monitoring devices, and using computer software, the total distance of movement can be directly obtained; in the FST experiment, the mice were placed in a into a transparent cylinder filled with warm water (about 25° C.) for 6 minutes, the mice will experience struggling, swimming and floating behaviors, the time when the mice stop struggling to float on the water surface is identified as a state of despair caused by depression, by using monitoring equipment and computer software to statistically analyze the state of mice after 4 minutes, the total “Immobility time” can be directly obtained.

CC(C)c1cccc(C(C)C)c1OC(=O)CC1(CN(C)C)CCCCC1 [Compound 5, 2,6-diisopropylphenyl 2-(1-((dimethylamino)methyl)cyclohexyl)acetate hydrochloride]
logP (physchem): 1.37
effect on body weight of mice ([1]; compound 5 100, 200, 400 mg/kg and positive drug, gavage for one week): no significant effect
alleviation of depressive behavior caused by LPS ([1]; compound 5 100, 200, 400 mg/kg and positive drug, gavage for one week, no statistical difference found): certain alleviation effect
spontaneous activity: total migration distance in open field within 5 minutes ([1]; reference blank group, day 7 before last administration, all dose groups, p>0.05): no significant effect
FST immobility time ([1]; reference model group, compound 5 100, 200, 400 mg/kg and positive drug, gavage for one week, 4 h after LPS): not significantly different (p>0.05)
